Measured values from ChEMBL document CHEMBL1201862, “PubChem BioAssay data set” (2004).
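Where inhibition never reached the appropriate level, the endpoint shown equals the highest concentration tested. Otherwise, values were interpolated linearly from a five-concentration, 48-hour dose response in 96-well plates. Abbreviation: GI50, concentration required for 50% inhibition of growth.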 Active and inactive are the calls of the source. Rule as the data show it: active = GI50 up to about 1.1 µM and inactive = higher.

Tests used:
Assay in all cases: NCI tumour cell line growth inhibition, 48 h
UO-31 = test system: UO-31
LOX IMVI = test system: LOX IMVI
KM12 = test system: KM12
Hs-578T = test system: Hs-578T
MOLT-4 = test system: MOLT-4
HOP-92 = test system: HOP-92
Malme-3M = test system: Malme-3M
786-0 = test system: 786-0
TK-10 = test system: TK-10
OVCAR-5 = test system: OVCAR-5
COLO 205 = test system: COLO 205
NCI/ADR-RES = test system: NCI/ADR-RES
U-251 = test system: U-251
MDA-MB-231 = test system: MDA-MB-231
IGROV-1 = test system: IGROV-1
A549 = test system: A549
OVCAR-4 = test system: OVCAR-4
UACC-62 = test system: UACC-62
NCI-H226 = test system: NCI-H226
NCI-H522 = test system: NCI-H522

How did the GI50 (UO-31) turn out when `COc1nncc2[nH]c(-c3ccccc3)cc12` was run?
The GI50 was 51.2 µM (inactive).

What about the GI50 (LOX IMVI) of the same compound?
The GI50 was 65 µM (inactive).

What about the GI50 (KM12) of the same compound?
The GI50 was > 100 µM (inactive).

What about the GI50 (Hs-578T) of the same compound?
The GI50 was 44 µM (inactive).

What about the GI50 (MOLT-4) of the same compound?
Its GI50 is 0.0652 µM (active).

And the GI50 (HOP-92)?
The GI50 was > 100 µM (inactive).

What about the GI50 (Malme-3M) of the same compound?
Its GI50 is > 100 µM (inactive).

What about the GI50 (786-0) of the same compound?
Its GI50 is 70 µM (inactive).

What about the GI50 (TK-10) of the same compound?
Its GI50 is 53.1 µM (inactive).

And the GI50 (OVCAR-5)?
The GI50 was > 100 µM (inactive).

What about the GI50 (COLO 205) of the same compound?
Its GI50 is > 100 µM (inactive).

And the GI50 (NCI/ADR-RES)?
The GI50 was 76.2 µM (inactive).

And the GI50 (U-251)?
The GI50 was 49 µM (inactive).

What about the GI50 (MDA-MB-231) of the same compound?
Its GI50 is 49.8 µM (inactive).

And the GI50 (IGROV-1)?
The GI50 was > 100 µM (inactive).

And the GI50 (A549)?
Its GI50 is 65.3 µM (inactive).

What about the GI50 (OVCAR-4) of the same compound?
Its GI50 is 93.5 µM (inactive).

And the GI50 (UACC-62)?
The GI50 was 42.3 µM (inactive).

What about the GI50 (NCI-H226) of the same compound?
Its GI50 is 80.9 µM (inactive).

How did the GI50 (UO-31) turn out when `CC(C)CC(NC=O)C(=O)NC(Cc1ccccc1)NC(=O)CNC(=O)C(C)NC(=O)C(N)Cc1ccc(O)cc1` (stereo not given) was run?
The GI50 was > 100 µM (inactive).

And the GI50 (LOX IMVI)?
Its GI50 is > 100 µM (inactive).

And the GI50 (KM12)?
Its GI50 is > 100 µM (inactive).

And the GI50 (Hs-578T)?
Its GI50 is > 100 µM (inactive).

And the GI50 (MOLT-4)?
The GI50 was > 100 µM (inactive).

And the GI50 (HOP-92)?
The GI50 was > 100 µM (inactive).

What about the GI50 (786-0) of the same compound?
The GI50 was > 100 µM (inactive).

And the GI50 (TK-10)?
The GI50 was > 100 µM (inactive).

What about the GI50 (OVCAR-5) of the same compound?
The GI50 was > 100 µM (inactive).

What about the GI50 (COLO 205) of the same compound?
The GI50 was > 100 µM (inactive).

What about the GI50 (NCI/ADR-RES) of the same compound?
The GI50 was > 100 µM (inactive).

And the GI50 (U-251)?
Its GI50 is > 100 µM (inactive).

What about the GI50 (MDA-MB-231) of the same compound?
The GI50 was > 100 µM (inactive).

And the GI50 (IGROV-1)?
Its GI50 is > 100 µM (inactive).

And the GI50 (A549)?
Its GI50 is > 100 µM (inactive).

What about the GI50 (OVCAR-4) of the same compound?
The GI50 was 91.8 µM (inactive).

What about the GI50 (UACC-62) of the same compound?
The GI50 was > 100 µM (inactive).

What about the GI50 (NCI-H226) of the same compound?
The GI50 was > 100 µM (inactive).

And the GI50 (NCI-H522)?
Its GI50 is > 100 µM (inactive).

How did the GI50 (UO-31) turn out when `CCCCCCCCCCCCCCCCCCOc1ccc(/C=C/C2=[N+](CCCl)CCO2)cc1` was run?
The GI50 was > 100 µM (inactive).

And the GI50 (LOX IMVI)?
The GI50 was > 100 µM (inactive).

And the GI50 (KM12)?
The GI50 was > 100 µM (inactive).

And the GI50 (Hs-578T)?
The GI50 was > 100 µM (inactive).

And the GI50 (MOLT-4)?
Its GI50 is > 100 µM (inactive).

And the GI50 (HOP-92)?
Its GI50 is > 100 µM (inactive).

And the GI50 (Malme-3M)?
The GI50 was > 100 µM (inactive).

And the GI50 (786-0)?
The GI50 was > 100 µM (inactive).

What about the GI50 (TK-10) of the same compound?
Its GI50 is > 100 µM (inactive).

What about the GI50 (OVCAR-5) of the same compound?
Its GI50 is 95.7 µM (inactive).

And the GI50 (COLO 205)?
The GI50 was 70.1 µM (inactive).

What about the GI50 (NCI/ADR-RES) of the same compound?
Its GI50 is > 100 µM (inactive).

And the GI50 (U-251)?
The GI50 was 50.4 µM (inactive).

What about the GI50 (MDA-MB-231) of the same compound?
Its GI50 is 41 µM (inactive).

And the GI50 (IGROV-1)?
Its GI50 is 67.6 µM (inactive).

And the GI50 (A549)?
Its GI50 is > 100 µM (inactive).

And the GI50 (OVCAR-4)?
Its GI50 is > 100 µM (inactive).

What about the GI50 (UACC-62) of the same compound?
Its GI50 is > 100 µM (inactive).

What about the GI50 (NCI-H522) of the same compound?
The GI50 was 0.796 µM (active).

`O=C(CN1c2ccccc2Sc2ccccc21)N1CCNCC1` was tested. Which GI50 (UO-31) did it give?
Its GI50 is 95.5 µM (inactive).

And the GI50 (LOX IMVI)?
The GI50 was > 100 µM (inactive).

What about the GI50 (KM12) of the same compound?
The GI50 was 64.4 µM (inactive).

What about the GI50 (Hs-578T) of the same compound?
The GI50 was > 100 µM (inactive).

And the GI50 (MOLT-4)?
Its GI50 is 64.7 µM (inactive).

And the GI50 (HOP-92)?
The GI50 was 29.5 µM (inactive).

And the GI50 (Malme-3M)?
The GI50 was > 100 µM (inactive).

And the GI50 (786-0)?
Its GI50 is > 100 µM (inactive).

What about the GI50 (TK-10) of the same compound?
The GI50 was > 100 µM (inactive).

And the GI50 (OVCAR-5)?
Its GI50 is > 100 µM (inactive).

What about the GI50 (COLO 205) of the same compound?
Its GI50 is > 100 µM (inactive).

And the GI50 (NCI/ADR-RES)?
Its GI50 is > 100 µM (inactive).

And the GI50 (U-251)?
The GI50 was 56.1 µM (inactive).

What about the GI50 (MDA-MB-231) of the same compound?
Its GI50 is > 100 µM (inactive).

And the GI50 (IGROV-1)?
Its GI50 is 71.4 µM (inactive).

And the GI50 (A549)?
The GI50 was > 100 µM (inactive).

And the GI50 (OVCAR-4)?
The GI50 was > 100 µM (inactive).

And the GI50 (UACC-62)?
The GI50 was > 100 µM (inactive).

And the GI50 (NCI-H226)?
Its GI50 is 78.7 µM (inactive).

Which GI50 (UO-31) does the source give for `O=CC(O)C(O)C(O)C(O)COC(=O)NCCCCC(=O)C(F)(F)C(F)(F)C(F)(F)C(F)(F)C(F)(F)C(F)(F)C(F)(F)F` (stereo not given) here?
The GI50 was > 100 µM (inactive).

What about the GI50 (LOX IMVI) of the same compound?
The GI50 was 15.3 µM (inactive).

And the GI50 (KM12)?
Its GI50 is 19.1 µM (inactive).

What about the GI50 (Hs-578T) of the same compound?
Its GI50 is 22.4 µM (inactive).

What about the GI50 (MOLT-4) of the same compound?
Its GI50 is 10.7 µM (inactive).

What about the GI50 (HOP-92) of the same compound?
The GI50 was 13.2 µM (inactive).

What about the GI50 (Malme-3M) of the same compound?
Its GI50 is > 100 µM (inactive).

What about the GI50 (786-0) of the same compound?
Its GI50 is 32.7 µM (inactive).

What about the GI50 (TK-10) of the same compound?
The GI50 was 70.5 µM (inactive).

And the GI50 (OVCAR-5)?
The GI50 was 17.2 µM (inactive).

What about the GI50 (COLO 205) of the same compound?
The GI50 was 30.5 µM (inactive).

And the GI50 (NCI/ADR-RES)?
The GI50 was > 100 µM (inactive).

What about the GI50 (U-251) of the same compound?
Its GI50 is > 10 µM (inactive).

What about the GI50 (MDA-MB-231) of the same compound?
The GI50 was 20 µM (inactive).

What about the GI50 (IGROV-1) of the same compound?
Its GI50 is 29.7 µM (inactive).

What about the GI50 (A549) of the same compound?
Its GI50 is 28.8 µM (inactive).

What about the GI50 (OVCAR-4) of the same compound?
Its GI50 is 51.8 µM (inactive).

And the GI50 (UACC-62)?
The GI50 was 15.9 µM (inactive).

What does the source list for `COc1c(C)c(C/C=C(\C)CC/C=C(\C)CCC=C(C)C)c(OC)c(OC)c1OC`?
GI50 (UO-31): > 100 µM (inactive); GI50 (LOX IMVI): 76.6 µM (inactive); GI50 (KM12): > 100 µM (inactive); GI50 (Hs-578T): > 100 µM (inactive); GI50 (MOLT-4): 91.4 µM (inactive); GI50 (HOP-92): > 100 µM (inactive); GI50 (786-0): > 100 µM (inactive); GI50 (TK-10): > 100 µM (inactive); GI50 (OVCAR-5): > 100 µM (inactive); GI50 (COLO 205): > 100 µM (inactive); GI50 (NCI/ADR-RES): > 100 µM (inactive); GI50 (U-251): > 100 µM (inactive); GI50 (MDA-MB-231): > 100 µM (inactive); GI50 (IGROV-1): > 100 µM (inactive); GI50 (A549): 49.3 µM (inactive); GI50 (OVCAR-4): > 100 µM (inactive); GI50 (UACC-62): > 100 µM (inactive); GI50 (NCI-H522): 41.3 µM (inactive)

For `Cc1cc(C)c(-c2no/c(=N\S(=O)(=O)c3ccc(Cl)cc3)o2)c(C)c1`, which GI50 (UO-31) is on record?
Its GI50 is > 100 µM (inactive).

What about the GI50 (KM12) of the same compound?
The GI50 was 57.9 µM (inactive).

And the GI50 (Hs-578T)?
The GI50 was > 100 µM (inactive).

What about the GI50 (MOLT-4) of the same compound?
The GI50 was > 100 µM (inactive).

What about the GI50 (Malme-3M) of the same compound?
Its GI50 is 75 µM (inactive).

What about the GI50 (786-0) of the same compound?
The GI50 was > 100 µM (inactive).

What about the GI50 (TK-10) of the same compound?
Its GI50 is > 100 µM (inactive).

And the GI50 (OVCAR-5)?
Its GI50 is > 100 µM (inactive).

What about the GI50 (COLO 205) of the same compound?
The GI50 was 41.4 µM (inactive).

What about the GI50 (NCI/ADR-RES) of the same compound?
The GI50 was 87.3 µM (inactive).

And the GI50 (U-251)?
Its GI50 is > 100 µM (inactive).

What about the GI50 (MDA-MB-231) of the same compound?
The GI50 was > 100 µM (inactive).

What about the GI50 (IGROV-1) of the same compound?
Its GI50 is > 100 µM (inactive).

What about the GI50 (A549) of the same compound?
Its GI50 is > 100 µM (inactive).

What about the GI50 (OVCAR-4) of the same compound?
The GI50 was > 100 µM (inactive).

What about the GI50 (UACC-62) of the same compound?
The GI50 was > 100 µM (inactive).

And the GI50 (NCI-H226)?
The GI50 was > 100 µM (inactive).

What about the GI50 (NCI-H522) of the same compound?
The GI50 was 28.6 µM (inactive).
